Results from patent US20200369728A1, “PEPTIDOMIMETIC MACROCYCLES AND USES THEREOF” (Aileron Therapeutics, Inc., priority 2015, published 2020).
Bridge positions count the residues as written; N and C are the ends. Square brackets hold non-standard residues; d marks the D form. Peptide text beside a SMILES is read from it. R8 = C=CCCCCCC[C@@](C)(N)C(=O)O; Cba = N[C@@H](CC1CCC1)C(=O)O; S5 = C=CCCC[C@](C)(N)C(=O)O; Nle = CCCC[C@H](N)C(=O)O; Ac3c = NC1(C(=O)O)CC1

Assays:
Caspase 3 = Caspase 3 detection assay in SJSA1 cells; assay type: cell-based; settings: SJSA1, 48 h, Caspase 3 activation over DMSO-treated cells
SJSA-1 cells = test: Cell lysis by peptidomimetic macrocycles (LDH release); assay type: cell-based; settings: SJSA-1, 1 h
Protocol: SJSA-1 cells were plated out one day in advance in clear flat-bottom plates (Costar, catalog number 353072) at 7500 cells/well with 100 ul/well of growth media, leaving row H columns 10-12 empty for media alone. On the day of the assay, media was exchanged with RPMI 1% FBS media, 90 uL of media per well.
10 mM stock solutions of the peptidomimetic macrocycles were prepared in 100% DMSO. Peptidomimetic macrocycles were then diluted serially in 100% DMSO, and then further diluted 20-fold in sterile water to prepare working stock solutions in 5% DMSO/water of each peptidomimetic macrocycle at concentrations ranging from 500 μM to 62.5 μM.
10 μL of each compound was added to the 90 uL of SJSA-1 cells to yield final concentrations of 50 μM to 6.25 μM in 0.5% DMSO-containing media. The negative control (non-lytic) sample was 0.5% DMSO alone and positive control (lytic) samples include 10 μM Melittin and 1% Triton X-100.
Cell plates were incubated for 1 hour at 37° C. After the 1 hour incubation, the morphology of the cells is examined by microscope and then the plates were centrifuged at 1200 rpm for 5 minutes at room temperature. 40 μL of supernatant for each peptidomimetic macrocycle and control sample is transferred to clear assay plates. LDH release is measured using the LDH cytotoxicity assay kit from Caymen, catalog #1000882.

SMILES | caspase 0.3 μM (Caspase 3) | caspase 3 μM (Caspase 3) | caspase 10 μM (Caspase 3) | caspase 30 μM (Caspase 3) | 6.25 μM % Lysed cells (1 h LDH) (SJSA-1 cells) | 25 μM % Lysed cells (1 h LDH) (SJSA-1 cells) | 50 μM % Lysed cells (1 h LDH) (SJSA-1 cells)
CC(=O)N[C@@H](CC(C)C)C(=O)N[C@H](C(=O)N[C@@H](Cc1ccccc1)C(=O)N[C@]1(C)CCCCCCC=CCCC[C@@](C)(C(=O)N[C@@H](C)C(=O)N[C@@H](Cc2c[nH]cn2)C(=O)N[C@@H](Cc2ccccc2)C(=O)N[C@@H](C)C(N)=O)NC(=O)[C@H](CC(C)C)NC(=O)[C@H](CCC(N)=O)NC(=O)[C@H](C)NC(=O)[C@H](Cc2c[nH]c3ccccc23)NC(=O)[C@H](Cc2c[nH]cn2)NC(=O)[C@H](C)NC1=O)[C@@H](C)O [compound 183] (Ac-LTF[R8]AHWAQL[S5]AHFA-NH2; staple 4-11) | 1 | 1 | 4 | 8 | 2% | 0% | 3%
CC[C@H](C)[C@H](NC(=O)[C@H](C)NC(=O)[C@H](C)NC(=O)[C@]1(C)CCCC=CCCCCCC[C@@](C)(NC(=O)[C@H](Cc2ccccc2)NC(=O)[C@@H](NC(=O)[C@H](CC(C)C)NC(C)=O)[C@@H](C)O)C(=O)N[C@@H](CCC(=O)O)C(=O)N[C@@H](Cc2ccc(O)cc2)C(=O)N[C@@H](Cc2c[nH]c3ccccc23)C(=O)N[C@@H](C)C(=O)N[C@@H](CCC(N)=O)C(=O)N[C@@H](CC2CCC2)C(=O)N1)C(=O)N[C@H](C)C(N)=O [compound 247] (Ac-LTF[R8]EYWAQ[Cba][S5]AAI[dA]-NH2; staple 4-11) | 1 | 3 | 11 | 24 | 0% | 0% | 4%
CC(=O)N[C@@H](CC(C)C)C(=O)N[C@H](C(=O)N[C@@H](Cc1ccccc1)C(=O)N[C@]1(C)CCCCCCC=CCCC[C@@](C)(C(=O)N[C@@H](CO)C(=O)N[C@H](C(=O)N[C@@H](C)C(N)=O)C(C)C)NC(=O)[C@H](CC(C)C)NC(=O)[C@H](CCC(N)=O)NC(=O)[C@H](C)NC(=O)[C@H](Cc2c[nH]c3ccccc23)NC(=O)[C@H](Cc2ccc(O)cc2)NC(=O)[C@H](C(C)C)NC1=O)[C@@H](C)O (single isomer, unassigned) [compound 139] | 1 | 2 | 9 | 18 | −2% | −1% | −1%
CC[C@H](C)[C@H](NC(=O)[C@H](C)NC(=O)[C@H](C)NC(=O)[C@]1(C)CCCC=CCCCCCC[C@@](C)(NC(=O)[C@H](Cc2ccccc2)NC(=O)[C@@H](NC(=O)[C@H](CC(C)C)NC(C)=O)[C@@H](C)O)C(=O)N[C@@H](C)C(=O)N[C@@H](Cc2ccc(O)cc2)C(=O)N[C@@H](Cc2c[nH]c3ccccc23)C(=O)N[C@@H](C)C(=O)N[C@@H](C)C(=O)N[C@@H](CC(C)C)C(=O)N1)C(=O)N[C@@H](C(N)=O)C(C)C (single isomer, unassigned) [compound 77] | 1 | 2 | 19 | 23 | −2% | 1% | −1%
CCCC[C@H](NC(=O)[C@H](C)NC(=O)[C@H](CO)NC(=O)[C@]1(C)CCCC=CCCCCCC[C@@](C)(NC(=O)[C@H](Cc2ccccc2)NC(=O)[C@@H](NC(=O)[C@H](CC(C)C)NC(C)=O)[C@@H](C)O)C(=O)N[C@@H](CCC(=O)O)C(=O)N[C@@H](Cc2ccc(O)cc2)C(=O)N[C@@H](Cc2c[nH]c3ccccc23)C(=O)N[C@@H](CO)C(=O)N[C@@H](CCC(N)=O)C(=O)N[C@@H](CC2CCC2)C(=O)N1)C(=O)N[C@@H](C)C(N)=O [compound 245] (Ac-LTF[R8]EYWSQ[Cba][S5]SA[Nle]A-NH2; staple 4-11) | 1 | 3 | 9 | 16 | 1% | 11% | 56%
CC[C@H](C)[C@H](NC(=O)[C@H](C)NC(=O)[C@H](C)NC(=O)[C@]1(C)CCCC=CCCCCCC[C@@](C)(NC(=O)[C@H](Cc2ccccc2)NC(=O)[C@@H](NC(=O)[C@H](CC(C)C)NC(C)=O)[C@@H](C)O)C(=O)N[C@@H](C)C(=O)N[C@@H](Cc2c[nH]cn2)C(=O)N[C@@H](Cc2c[nH]c3ccccc23)C(=O)N[C@@H](C)C(=O)N[C@@H](CCC(N)=O)C(=O)N[C@@H](CC(C)C)C(=O)N1)C(=O)N[C@H](C)C(N)=O [compound 170] (Ac-LTF[R8]AHWAQL[S5]AAI[dA]-NH2; staple 4-11) | 1 | 1 | 16 | 20 | 2% | 1% | −1%
CC[C@H](C)[C@H](NC(=O)[C@H](C)NC(=O)[C@H](C)NC(=O)[C@]1(C)CCCC=CCCCCCC[C@@](C)(NC(=O)[C@H](Cc2ccccc2)NC(=O)[C@@H](NC(=O)[C@H](CC(C)C)NC(C)=O)[C@@H](C)O)C(=O)N[C@@H](C)C(=O)N[C@@H](Cc2ccc(O)cc2)C(=O)N[C@@H](Cc2c[nH]c3ccccc23)C(=O)N[C@@H](C)C(=O)N[C@@H](C)C(=O)N[C@@H](CC(C)C)C(=O)N1)C(=O)N[C@H](C)C(N)=O (single isomer, unassigned) [compound 203] | 1 | 3 | 12 | 10 | 0% | 2% | 2%
CC(=O)N[C@@H](CC(C)C)C(=O)N[C@H](C(=O)N[C@@H](Cc1ccccc1)C(=O)N[C@]1(C)CCCCCCC=CCCC[C@@](C)(C(=O)N[C@@H](CO)C(=O)N[C@@H](C)C(=O)N[C@@H](C)C(N)=O)NC(=O)[C@H](CC(C)C)NC(=O)[C@H](C)NC(=O)[C@H](C)NC(=O)[C@H](Cc2c[nH]c3ccccc23)NC(=O)[C@H](Cc2c[nH]cn2)NC(=O)[C@H](C)NC1=O)[C@@H](C)O [compound 197] (Ac-LTF[R8]AHWAAL[S5]SAA-NH2; staple 4-11) | 1 | 1 | 10 | 20 | 1% | −1% | −2%
CC[C@H](C)[C@H](NC(=O)[C@H](C)NC(=O)[C@H](C)NC(=O)[C@]1(C)CCCC=CCCCCCC[C@@](C)(NC(=O)[C@H](Cc2ccccc2)NC(C)=O)C(=O)N[C@@H](C)C(=O)N[C@@H](Cc2ccc(O)cc2)C(=O)N[C@@H](Cc2c[nH]c3ccccc23)C(=O)N[C@@H](CCC(=O)O)C(=O)NC2(CC2)C(=O)N[C@@H](CC(C)C)C(=O)N1)C(N)=O [compound 19] (Ac-F[R8]AYWE[Ac3c]L[S5]AAI-NH2; staple 2-9) | – | – | – | – | 2% | 3% | 21%
CC[C@H](C)[C@H](NC(=O)[C@H](C)NC(=O)[C@H](C)NC(=O)[C@]1(C)CCCC=CCCCCCC[C@@](C)(NC(=O)[C@H](Cc2ccccc2)NC(=O)[C@@H](NC(=O)[C@H](CC(C)C)NC(C)=O)[C@@H](C)O)C(=O)N[C@@H](C)C(=O)N[C@@H](Cc2ccc(C(=O)O)cc2)C(=O)N[C@@H](Cc2c[nH]c3ccccc23)C(=O)N[C@@H](C)C(=O)N[C@@H](CCC(N)=O)C(=O)N[C@@H](CC(C)C)C(=O)N1)C(=O)N[C@H](C)C(N)=O (single isomer, unassigned) [compound 182] | – | – | – | – | 0% | 3% | 6%
CC(=O)N[C@@H](CC(C)C)C(=O)N[C@H](C(=O)N[C@@H](Cc1ccccc1)C(=O)N[C@]1(C)CCCCCCC=CCCC[C@@](C)(C(=O)N[C@@H](C)C(=O)N[C@@H](Cc2c[nH]cn2)C(=O)N[C@@H](Cc2ccccc2)C(=O)N[C@@H](C)C(N)=O)NC(=O)[C@H](CC(C)C)NC(=O)[C@H](CCC(N)=O)NC(=O)[C@H](C(C)C)NC(=O)[C@H](Cc2c[nH]c3ccccc23)NC(=O)[C@H](Cc2c[nH]cn2)NC(=O)[C@H](C)NC1=O)[C@@H](C)O [compound 190] (Ac-LTF[R8]AHWVQL[S5]AHFA-NH2; staple 4-11) | – | – | – | – | −1% | 0% | 1%
CC(=O)N[C@@H](Cc1ccccc1)C(=O)N[C@]1(C)CCCCCCC=CCCC[C@@](C)(C(=O)N[C@@H](C)C(=O)N[C@@H](C)C(=O)N[C@@H](CC(C)C)C(N)=O)NC(=O)[C@H](CC(C)C)NC(=O)C2(CC2)NC(=O)[C@H](CCC(=O)O)NC(=O)[C@H](Cc2c[nH]c3ccccc23)NC(=O)[C@H](Cc2ccc(O)cc2)NC(=O)[C@H](C)NC1=O [compound 15] (Ac-F[R8]AYWE[Ac3c]L[S5]AAL-NH2; staple 2-9) | – | – | – | – | 1% | 2% | 5%
